In patent US5292733A, “Cephalosporin compounds” (Lucky Limited, priority 1991, dated 1994):
Converted amounts (≈) assume the structure as drawn.

Assays:
Assay in all cases: Antibacterial activity MIC, two-fold agar dilution
Format in all cases: cell-based
[1] = tested on: Bacillus megaterium ATCC 9885; conditions: Priestia megaterium, ATCC9885; Bacillus megaterium ATCC 9885; Muller-Hinton agar, 37° C., 20 hours; read-out: Antibacterial Activity MIC
Outline: (§1)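 Agar dilution assay in Muller-Hinton medium with doubling compound concentrations. Strains were inoculated as 2 μl of a 10^7 CFU/ml suspension and grown for 20 hours at 37° C.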

[2] = tested on: Shigella flexneri ATCC 11836; conditions: ATCC11836, Muller-Hinton agar, 37° C., 20 hours
Outline: as §1

[3] = tested on: Streptococcus faecalis ATCC 29212; conditions: Enterococcus faecalis, ATCC29212; Streptococcus faecalis ATCC 29212; Muller-Hinton agar, 37° C., 20 hours; read-out: Antibacterial Activity MIC
Outline: as §1

[4] = tested on: Enterobacter aerogenes ATCC 29751; conditions: Klebsiella aerogenes, ATCC29751; Enterobacter aerogenes ATCC 29751; Muller-Hinton agar, 37° C., 20 hours; read-out: Antibacterial Activity MIC
Outline: as §1

[5] = tested on: Proteus mirabilis ATCC 25933; conditions: ATCC25933; Proteus mirabilis ATCC 25933; Muller-Hinton agar, 37° C., 20 hours; read-out: Antibacterial Activity MIC
Outline: as §1

[6] = tested on: Serratia marcescens ATCC 27117; conditions: ATCC27117; Serratia marcescens ATCC 27117; Muller-Hinton agar, 37° C., 20 hours; read-out: Antibacterial Activity MIC
Outline: as §1

[7] = tested on: Klebsiella pneumoniae ATCC 10031; conditions: ATCC10031; Klebsiella pneumoniae ATCC 10031; Muller-Hinton agar, 37° C., 20 hours; read-out: Antibacterial Activity MIC
Outline: as §1

[8] = tested on: Morganella morganii ATCC 8076h; conditions: ATCC8076H, Muller-Hinton agar, 37° C., 20 hours
Outline: as §1

[9] = tested on: Shigella sonnei ATCC 11060; conditions: ATCC11060, Muller-Hinton agar, 37° C., 20 hours
Outline: as §1

[10] = tested on: Enterobacter cloacae ATCC 27508; conditions: ATCC27508; Enterobacter cloacae ATCC 27508; Muller-Hinton agar, 37° C., 20 hours; read-out: Antibacterial Activity MIC
Outline: as §1

[11] = tested on: Staphylococcus epidermidis ATCC 12228; conditions: ATCC12228; Staphylococcus epidermidis ATCC 12228; Muller-Hinton agar, 37° C., 20 hours; read-out: Antibacterial Activity MIC
Outline: as §1

[12] = tested on: Acinetobacter calcoaceticus ATCC 15473; conditions: ATCC15473; Acinetobacter calcoaceticus ATCC 15473; Muller-Hinton agar, 37° C., 20 hours; read-out: Antibacterial Activity MIC
Outline: as §1

[13] = tested on: Escherichia coli ATCC 10536; conditions: ATCC10536, Muller-Hinton agar, 37° C., 20 hours
Outline: as §1

[14] = tested on: Staphylococcus aureus ATCC 6538p; conditions: ATCC6538P; Staphylococcus aureus ATCC 6538p; Muller-Hinton agar, 37° C., 20 hours; read-out: Antibacterial Activity MIC
Outline: as §1

[15] = tested on: Pseudomonas aeruginosa ATCC 25619; conditions: ATCC25619; Pseudomonas aeruginosa ATCC 25619; Muller-Hinton agar, 37° C., 20 hours; read-out: Antibacterial Activity MIC
Outline: as §1

[16] = tested on: Bacillus cereus ATCC 11778; conditions: ATCC11778; Bacillus cereus ATCC 11778; Muller-Hinton agar, 37° C., 20 hours; read-out: Antibacterial Activity MIC
Outline: as §1

[17] = tested on: Staphylococcus aureus ATCC 10537; conditions: ATCC10537; Staphylococcus aureus ATCC 10537; Muller-Hinton agar, 37° C., 20 hours; read-out: Antibacterial Activity MIC
Outline: as §1

[18] = tested on: Pseudomonas aeruginosa ATCC 27853; conditions: ATCC27853; Pseudomonas aeruginosa ATCC 27853; Muller-Hinton agar, 37° C., 20 hours; read-out: Antibacterial Activity MIC
Outline: as §1

[19] = tested on: Proteus vulgaris ATCC 6059; conditions: ATCC6059; Proteus vulgaris ATCC 6059; Muller-Hinton agar, 37° C., 20 hours; read-out: Antibacterial Activity MIC
Outline: as §1

[20] = tested on: Escherichia coli ATCC 25922; conditions: ATCC25922, Muller-Hinton agar, 37° C., 20 hours
Outline: as §1

[21] = tested on: Micrococcus luteus ATCC 9341; conditions: ATCC9341; Micrococcus luteus ATCC 9341; Muller-Hinton agar, 37° C., 20 hours; read-out: Antibacterial Activity MIC
Outline: as §1

[22] = tested on: Citrobacter freundii ATCC 8090; conditions: ATCC8090; Citrobacter freundii ATCC 8090; Muller-Hinton agar, 37° C., 20 hours; read-out: Antibacterial Activity MIC
Outline: as §1

[23] = tested on: Pseudomonas aeruginosa ATCC 10145; conditions: ATCC10145; Pseudomonas aeruginosa ATCC 10145; Muller-Hinton agar, 37° C., 20 hours; read-out: Antibacterial Activity MIC
Outline: as §1

[24] = tested on: Salmonella typhimurium ATCC 14028; conditions: Salmonella enterica; Salmonella typhimurium ATCC 14028; Muller-Hinton agar, 37° C., 20 hours; read-out: Antibacterial Activity MIC
Outline: as §1

[25] = tested on: Providencia rettgeri ATCC 9250; conditions: ATCC9250, Muller-Hinton agar, 37° C., 20 hours
Outline: as §1

| SMILES | MIC [1] | MIC [2] | MIC [3] | MIC [4] | MIC [5] | MIC [6] | MIC [7] | MIC [8] | MIC [9] | MIC [10] | MIC [11] | MIC [12] | MIC [13] | MIC [14] | MIC [15] | MIC [16] | MIC [17] | MIC [18] | MIC [19] | MIC [20] | further results |
| --- | --- | --- | --- | --- | --- | --- | --- | --- | --- | --- | --- | --- | --- | --- | --- | --- | --- | --- | --- | --- | --- |
| CO/N=C(\C(=O)N[C@@H]1C(=O)N2C(C(=O)[O-])=C(CSc3cc(N)[n+](C)c(N)n3)CS[C@H]12)c1csc(N)n1 [Compound I-21, (6R,7R)-7-[(Z)-2-(2-aminothiazol-4-yl)-2-(methoxyimino)acetamido]-3-(2,6-diamino-1-methylpyrimidinium-4-yl)thiomethyl-3-cephem-4-carboxylate] | 0.13 µg/mL (≈ 0.236 µM) | 0.016 µg/mL (≈ 0.029 µM) | 32 µg/mL (≈ 58 µM) | 0.25 µg/mL (≈ 0.453 µM) | 0.5 µg/mL (≈ 0.906 µM) | 0.25 µg/mL (≈ 0.453 µM) | ≤ 0.008 µg/mL | ≤ 0.008 µg/mL | 0.13 µg/mL (≈ 0.236 µM) | ≤ 0.008 µg/mL | 0.25 µg/mL (≈ 0.453 µM) | 8 µg/mL (≈ 14.5 µM) | 0.063 µg/mL (≈ 0.114 µM) | 0.5 µg/mL (≈ 0.906 µM) | 1 µg/mL (≈ 1.81 µM) | 128 µg/mL (≈ 232 µM) | 0.5 µg/mL (≈ 0.906 µM) | 2 µg/mL (≈ 3.63 µM) | 0.5 µg/mL (≈ 0.906 µM) | 0.063 µg/mL (≈ 0.114 µM) | MIC [21]: 0.063 µg/mL (≈ 0.114 µM); MIC [22]: 0.031 µg/mL (≈ 0.0562 µM); MIC [23]: 16 µg/mL (≈ 29 µM); MIC [24]: 0.13 µg/mL (≈ 0.236 µM); MIC [25]: ≤ 0.008 µg/mL |
| CC[n+]1c(N)cc(SCC2=C(C(=O)[O-])N3C(=O)[C@@H](NC(=O)/C(=N\OC)c4csc(N)n4)[C@H]3SC2)nc1N [Compound I-22, (6R,7)-7-[(Z)-2-(2-aminothiazol-4-yl)-2-(methoxyimino)acetamido]-3-(2,6-diamino-1-ethylpyrimidinium-4-yl)thiomethyl-3-cephem-4-carboxylate] | 0.25 µg/mL (≈ 0.442 µM) | 0.063 µg/mL (≈ 0.111 µM) | 8 µg/mL (≈ 14.1 µM) | 0.25 µg/mL (≈ 0.442 µM) | 0.25 µg/mL (≈ 0.442 µM) | 0.25 µg/mL (≈ 0.442 µM) | ≤ 0.008 µg/mL | ≤ 0.008 µg/mL | 0.031 µg/mL (≈ 0.0548 µM) | ≤ 0.008 µg/mL | 0.25 µg/mL (≈ 0.442 µM) | 8 µg/mL (≈ 14.1 µM) | 0.063 µg/mL (≈ 0.111 µM) | 0.25 µg/mL (≈ 0.442 µM) | 1 µg/mL (≈ 1.77 µM) | 64 µg/mL (≈ 113 µM) | 0.5 µg/mL (≈ 0.884 µM) | 2 µg/mL (≈ 3.54 µM) | 0.25 µg/mL (≈ 0.442 µM) | 0.063 µg/mL (≈ 0.111 µM) | MIC [21]: 0.031 µg/mL (≈ 0.0548 µM); MIC [22]: 0.25 µg/mL (≈ 0.442 µM); MIC [23]: 8 µg/mL (≈ 14.1 µM); MIC [24]: 0.13 µg/mL (≈ 0.23 µM); MIC [25]: ≤ 0.008 µg/mL |
| C[n+]1c(N)nc(N)nc1SCC1=C(C(=O)[O-])N2C(=O)C(NC(=O)/C(=N\OC(C)(C)C(=O)O)c3csc(N)n3)[C@H]2SC1 (stereo partly drawn) [Compound I-23, 7-[(Z)-2-(2-aminothiazol-4-yl)-2-(2-carboxyprop-2-oxyimino)acetamido]-3-(4,6-diamino-1-methyl-1,3,5-triazinium-2-yl)thiomethyl-3-cephem-4-carboxylate] | 0.5 µg/mL (≈ 0.8 µM) | 0.063 µg/mL (≈ 0.101 µM) | > 128 µg/mL | 2 µg/mL (≈ 3.2 µM) | 0.063 µg/mL (≈ 0.101 µM) | 0.13 µg/mL (≈ 0.208 µM) | 0.063 µg/mL (≈ 0.101 µM) | ≤ 0.008 µg/mL | 0.063 µg/mL (≈ 0.101 µM) | 0.031 µg/mL (≈ 0.0496 µM) | 2 µg/mL (≈ 3.2 µM) | 4 µg/mL (≈ 6.4 µM) | 0.063 µg/mL (≈ 0.101 µM) | 8 µg/mL (≈ 12.8 µM) | 1 µg/mL (≈ 1.6 µM) | 128 µg/mL (≈ 205 µM) | 2 µg/mL (≈ 3.2 µM) | 1 µg/mL (≈ 1.6 µM) | 0.063 µg/mL (≈ 0.101 µM) | 0.063 µg/mL (≈ 0.101 µM) | MIC [21]: 1 µg/mL (≈ 1.6 µM); MIC [22]: 0.13 µg/mL (≈ 0.208 µM); MIC [23]: 2 µg/mL (≈ 3.2 µM); MIC [24]: 0.13 µg/mL (≈ 0.208 µM); MIC [25]: ≤ 0.008 µg/mL |
